Results as given in US20110189174A1, “COMPOSITIONS AND METHODS FOR TREATING, REDUCING, AMELIORATING, ALLEVIATING, OR INHIBITING PROGRESSION OF, PATHOGENIC OCULAR NEOVASCULARIZATION” (priority 2010, published 2011).

How the values were obtained:
[1] = tested on: human retinal endothelial cells (HREC); assay: PMA-induced HREC network formation in fibrin gel; assay type: cell-based; details: PMA 25 ng/mL, vs PMA control
Description: Prior to the start of the experiment, HREC from Cell Systems were cultured in flask in CS-C complete medium. The tube formation assay was performed in a 96-well plate pre-coated with fibrin gel. HREC were collected from flasks and re-suspended 1% FBS EBM-2 medium. Cells were pre-incubated with the integrin antagonists, echistatin or vehicle control for 30 min before loading onto the fibrin gel. Images were taken at 9 h.
Thrombin solution and fibrinogen solutions were allowed to thaw at room temperature and 37° C. water bath, respectively. Fibrinogen solution at 30 μL was added into the desired number of wells in a 96-well plate. Plate was gently shaken to ensure uniform coverage of fibrinogen solution in the well. Thrombin at 20 μL was added into each well. The plate was gently shaken immediately to ensure the thrombin was mixed well with fibrinogen. The plate was placed at 37° C. overnight to allow the fibrin gel to polymerize.
HREC were trypsinized at about 80% confluence and counted by standard hemocytometer methods. After deactivating trypsin with 5 mL of 10% FBS EBM-2 medium, the cells were centrifuged (800 rpm, 8 min) and re-suspended at 2×10^5 cells/mL in 1% FBS EBM-2 medium
Cells were pre-incubated with integrin compounds or echistatin at 37° C., 5% CO2, and 95% humidity for 30 minutes before mixing with PMA medium. The final concentrations of all agents are shown in the design table. The 100 μL of the cell mixture was added onto the gel and cells were cultured at 37° C., 5% CO2, and 95% humidity. Images were taken at different time points.
The network formation scoring system (a five point-scale)
Each well in one group was given a score and then averaged. Data were expressed as mean±SEM of network formation scores. Statistical analysis was performed using a one-way ANOVA-Dunnett's test in raw data, and p<0.05 was considered statistically significant. Data analysis was performed using statistical analysis software JMP (SAS Institute, Cary, N.C.).

[2] = Clinical ophthalmic examination in monkeys (vitreal cell scores, anterior chamber inflammation); assay type: in vivo, cynomolgus monkeys (Macaca fascicularis); details: for Vitreal cell score: number of eyes with grade 0 / Vitreal cell score: number of eyes with grade 1 / Vitreal cell score: number of eyes with grade 2 / Vitreal cell score: number of eyes with grade 3 / Vitreal cell score: number of eyes with grade 4 / Vitreal cell score: number of eyes with grade Trace: intravitreal days 1 and 15, cells not distinguishable from dispersed drug
Description: Once the phase Ib study was completed, and it was established that the drug suspension in oil would not interfere with either laser administration, evaluation of CNV or cause adverse effects, phase II was initiated. On days 1, and 15 both eyes of monkeys received 50 μL of Lucentis (0.5 mg/eye), vehicle (0 mg/eye), BOL-303050-X (1.5 mg/eye), BOL-303054-X (1.5 mg/eye) or BOL-303055-X (1.5 mg/eye) (Table 2). Intravitreous injection was performed for each by eye aiming towards mid-vitreous body. Dosing in the right eye was alternated for successive doses (as applicable) at approximately the 11 o'clock and 10 o'clock positions. Dosing in the left eye was alternated for successive doses (as applicable) from approximately the 1 o'clock and 2 o'clock positions.
Animals were examined at baseline, on days 1, 3, 7, 15, and 31 of Dosing Phase II and on the day of scheduled sacrifice (day 38). On days of dose administration the ophthalmic examination was done prior to dosing.

Structure (SMILES)	Inhibition of PMA-induced HREC network formation in fibrin gel ([1]; 10 nM)	Vitreal cell score: number of eyes with grade 0 ([2]; Day 3)	Vitreal cell score: number of eyes with grade 1 ([2]; Day 3)	Vitreal cell score: number of eyes with grade 2 ([2]; Day 3)	Vitreal cell score: number of eyes with grade 3 ([2]; Day 3)	Vitreal cell score: number of eyes with grade 4 ([2]; Day 3)	Vitreal cell score: number of eyes with grade Trace ([2]; Day 3)	Vitreal cell score: number of eyes with grade 0 ([2]; Day 7)	Vitreal cell score: number of eyes with grade 1 ([2]; Day 7)	Vitreal cell score: number of eyes with grade 2 ([2]; Day 7)	Vitreal cell score: number of eyes with grade 3 ([2]; Day 7)	Vitreal cell score: number of eyes with grade 4 ([2]; Day 7)	Vitreal cell score: number of eyes with grade Trace ([2]; Day 7)	Vitreal cell score: number of eyes with grade 0 ([2]; Day 15)	Vitreal cell score: number of eyes with grade 1 ([2]; Day 15)	Vitreal cell score: number of eyes with grade 2 ([2]; Day 15)	Vitreal cell score: number of eyes with grade 3 ([2]; Day 15)	Vitreal cell score: number of eyes with grade 4 ([2]; Day 15)	Vitreal cell score: number of eyes with grade Trace ([2]; Day 15)	Vitreal cell score: number of eyes with grade 0 ([2]; Day 31)	further results
COc1ccc(S(=O)(=O)N[C@@H](CNc2nc(C)nc(N3CCC(c4ccc5c(n4)NCCC5)CC3)c2C)C(=O)O)cc1 [BOL-303050-X]	significantly inhibited	8	5	0	0	1	4	1	4	6	2	5	0	1	8	2	1	4	2	0	Inhibition of PMA-induced HREC network formation in fibrin gel ([1]; 1 nM): significantly inhibited; Vitreal cell score: number of eyes with grade 1 ([2]; Day 31): 2; Vitreal cell score: number of eyes with grade 2 ([2]; Day 31): 1; Vitreal cell score: number of eyes with grade 3 ([2]; Day 31): 1; Vitreal cell score: number of eyes with grade 4 ([2]; Day 31): 11; Vitreal cell score: number of eyes with grade Trace ([2]; Day 31): 0; Vitreal cell score: number of eyes with grade 0 ([2]; Day 38): 0; Vitreal cell score: number of eyes with grade 1 ([2]; Day 38): 1; Vitreal cell score: number of eyes with grade 2 ([2]; Day 38): 0; Vitreal cell score: number of eyes with grade 3 ([2]; Day 38): 3; Vitreal cell score: number of eyes with grade 4 ([2]; Day 38): 12; Vitreal cell score: number of eyes with grade Trace ([2]; Day 38): 0; Drug-related ocular findings ([2]; oil formulation, 1.5 mg/eye intravitreal): No drug-related ocular findings were reported
COc1c(NC[C@H](NC(=O)OCc2ccccc2)C(=O)O)ncnc1N1CCC(c2ccc3c(n2)NCCC3)CC1 [BOL-303054-X]	not statistically significant	9	1	1	0	0	5	2	2	2	4	6	2	0	6	2	0	8	0	0	Inhibition of PMA-induced HREC network formation in fibrin gel ([1]; 1 nM): not statistically significant; Vitreal cell score: number of eyes with grade 1 ([2]; Day 31): 1; Vitreal cell score: number of eyes with grade 2 ([2]; Day 31): 8; Vitreal cell score: number of eyes with grade 3 ([2]; Day 31): 2; Vitreal cell score: number of eyes with grade 4 ([2]; Day 31): 6; Vitreal cell score: number of eyes with grade Trace ([2]; Day 31): 1; Vitreal cell score: number of eyes with grade 0 ([2]; Day 38): 0; Vitreal cell score: number of eyes with grade 1 ([2]; Day 38): 0; Vitreal cell score: number of eyes with grade 2 ([2]; Day 38): 3; Vitreal cell score: number of eyes with grade 3 ([2]; Day 38): 2; Vitreal cell score: number of eyes with grade 4 ([2]; Day 38): 13; Vitreal cell score: number of eyes with grade Trace ([2]; Day 38): 0; Anterior chamber inflammation ([2]; left eye of one monkey that developed endophthalmitis on day 29, until day 38): Moderate anterior chamber inflammation
CCc1nc(NC[C@H](NC(=O)OCc2ccccc2)C(=O)O)c(C)c(N2CCC(c3ccc4c(n3)NCCC4)CC2)n1 [BOL-303055-X]	significantly inhibited	11	1	0	0	0	6	0	3	6	3	1	5	0	7	3	1	3	4	5	Vitreal cell score: number of eyes with grade 1 ([2]; Day 31): 2; Vitreal cell score: number of eyes with grade 2 ([2]; Day 31): 4; Vitreal cell score: number of eyes with grade 3 ([2]; Day 31): 0; Vitreal cell score: number of eyes with grade 4 ([2]; Day 31): 0; Vitreal cell score: number of eyes with grade Trace ([2]; Day 31): 7; Vitreal cell score: number of eyes with grade 0 ([2]; Day 38): 6; Vitreal cell score: number of eyes with grade 1 ([2]; Day 38): 5; Vitreal cell score: number of eyes with grade 2 ([2]; Day 38): 0; Vitreal cell score: number of eyes with grade 3 ([2]; Day 38): 0; Vitreal cell score: number of eyes with grade 4 ([2]; Day 38): 0; Vitreal cell score: number of eyes with grade Trace ([2]; Day 38): 7
